Measurements reported in patent publication US10653705B2, “Applications for estrone in preparing anti-ovarian cancer and/or breast cancer products” (SHANGHAI JIAO TONG UNIVERSITY, priority 2015, dated 2020).

How the values were obtained:
Assay type in all cases: cell-based
[1] = tested on: NCI-H1437 human lung cancer cells; experiment: CellTiter-Glo luminescent cell viability assay, NCI-H1437 human lung cancer cells; settings: 72 hours
[2] = tested on: HCC1395 breast cancer cells; experiment: CellTiter-Glo luminescent cell viability assay, HCC1395 breast cancer cells; settings: Homo sapiens, 72 hours
Procedure: In example 1, CELLTITER-GLO was used to test estrone against ovarian cancer and/or breast cancer m) A cell counter was used to count the number of suspended cells and adjust the cell suspension to an appropriate density in the plate to carry out cell plating experiments. 2. The drug analyte estrone was prepared and administered (200× final concentration): a) DMSO was used to dilute the analyte estrone to 20 mM for use. b) 79 μL of the 20 mM analyte prepared in step a) was added to the first well in the first row of the dilution plate, and then 54 μL of DMSO solution was added to the second through ninth wells of the first row. […] The final concentrations (μM) of the analyte drug in wells 2-10 in FIG. 1 are, in order: 100, 31.64557, 10.01442, 3.16912, 1.002886, 0.317369, 0.100433, 0.031783, 0.010058; B. CELLTITER-GLO Luminescent Cell Viability Assay System c) 100 μl of CellTiter-Glo reagent (prepared as described in 1 above) was added to all drug screening plates and mixed evenly. d) It was thoroughly oscillated in a 96-well microplate oscillator for 2 minutes to allow the cells to undergo full lysis. e) It was stored away from light at room temperature for 15 minutes before carrying out luminescent signal detection to ensure signal stability. f) An EnSpire multi-function plate reader was used at 570 nm to read the luminescent signals. g) Data was processed and analyzed. […]

[3] = tested on: NCI-H460 large-cell lung cancer cells; experiment: CellTiter-Glo luminescent cell viability assay, NCI-H460 large-cell lung cancer cells; settings: Homo sapiens, 72 hours
[4] = tested on: SKOV-3 ovarian cancer cells; experiment: CellTiter-Glo luminescent cell viability assay, SKOV-3 ovarian cancer cells
From the text: In example 1, CELLTITER-GLO was used to test estrone against ovarian cancer and/or breast cancer m) A cell counter was used to count the number of suspended cells and adjust the cell suspension to an appropriate density in the plate to carry out cell plating experiments. SKOV-3 cells were handled as described above, and a SKOV-3 96-well cell culture plate was obtained. The complete medium for SKOV-3 cells was McCOY'S 5A (a live product), Cat #16600082, with a cells/well density of 12000. 2. The drug analyte estrone was prepared and administered (200× final concentration): a) DMSO was used to dilute the analyte estrone to 20 mM for use. b) 79 μL of the 20 mM analyte prepared in step a) was added to the first well in the first row of the dilution plate, and then 54 μL of DMSO solution was added to the second through ninth wells of the first row. […] The final concentrations (μM) of the analyte drug in wells 2-10 in FIG. 1 are, in order: 100, 31.64557, 10.01442, 3.16912, 1.002886, 0.317369, 0.100433, 0.031783, 0.010058; B. CELLTITER-GLO Luminescent Cell Viability Assay System a) Before testing, the SKOV-3 96-well drug screening plate described in 3 above was stabilized to room temperature for 20-30 minutes. c) 100 μl of CellTiter-Glo reagent (prepared as described in 1 above) was added to all drug screening plates and mixed evenly. d) It was thoroughly oscillated in a 96-well microplate oscillator for 2 minutes to allow the cells to undergo full lysis. e) It was stored away from light at room temperature for 15 minutes before carrying out luminescent signal detection to ensure signal stability. f) An EnSpire multi-function plate reader was used at 570 nm to read the luminescent signals. g) Data was processed and analyzed.

IC50 [1]: ≥ 100 µM
IC50 [2]: 68 µM
EC50 ([2]; FIG. 3): 74000 µM
IC50 [3]: ≥ 100 µM
IC50 ([4]; Homo sapiens, SK-OV-3, SKOV-3 cells, 72 hours, CellTiter-Glo): 21.5 µM
EC50 ([4]; Homo sapiens, SK-OV-3, SKOV-3 cells, 72 hours, CellTiter-Glo, FIG. 2): 16.4 µM
SMILES: C[C@]12CC[C@@H]3c4ccc(O)cc4CC[C@H]3[C@@H]1CCC2=O [Estrone]
effect on the proliferation of ovarian cancer cells ([4]; compared with the lung cancer cell lines of Table 1): specific inhibitory effect
